We go through two compounds from PMC11214964 (Biomolecules & Therapeutics, 2024).

Where two headings read alike, the source gives them in different places.

The assay concerns the target CB1R (Homo sapiens, UniProt P21554). Kind of assay: cell-based. The assay is classed as binding.

CB1R, sequence (P21554 whole entry): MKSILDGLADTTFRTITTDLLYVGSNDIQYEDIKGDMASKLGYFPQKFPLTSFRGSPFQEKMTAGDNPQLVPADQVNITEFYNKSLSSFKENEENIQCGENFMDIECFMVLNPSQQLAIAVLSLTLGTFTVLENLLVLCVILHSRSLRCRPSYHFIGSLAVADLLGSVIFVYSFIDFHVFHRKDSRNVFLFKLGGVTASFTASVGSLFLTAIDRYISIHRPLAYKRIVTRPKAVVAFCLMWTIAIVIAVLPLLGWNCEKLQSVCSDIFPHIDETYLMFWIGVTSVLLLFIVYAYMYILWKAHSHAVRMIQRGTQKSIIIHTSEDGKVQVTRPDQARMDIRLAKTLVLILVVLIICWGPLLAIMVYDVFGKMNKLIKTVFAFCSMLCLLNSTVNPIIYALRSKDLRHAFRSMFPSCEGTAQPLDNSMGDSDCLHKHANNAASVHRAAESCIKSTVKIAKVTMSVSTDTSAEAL

Usually Ki stands for a measure of affinity in units of concentration, obtained from inhibition or displacement. `N#Cc1c(Oc2cccc(OS(=O)(=O)CCCC(F)(F)F)c2)cccc1C(F)(F)F` [Compound 29, 3-[2-cyano-3-(trifluoromethyl)phenoxy]phenyl-4,4,4-trifluoro-1-butanesulfonate] gave a Ki of 18.1 nM. In the case of AM-1248 [Compound 10], under “read-out: Ki (nM), binding affinity for CB1R, competition with 3 nM [3H]-SR141716A, 6 h at 4°C, Ki=IC50/(1+[D]/Kd)”, the Ki is 104 nM.
